Assay results taken from US20160302455A1, “Methods Of Producing An Antimicrobial Solution And Methods For Reducing Bacteria On Produce And/Or Minimizing Enzymatic Browning Of Produce” (priority 2015, published 2016).
Read-outs that look alike come from different tables or passages of the source. Ends that are not written are not given here.

Columns and labels:
[1] = system: Aerobic, mesophilic bacteria; type: cell-based
L. monocytogenes [2] = type: cell-based, Listeria monocytogenes
Salmonella spp. [3] = type: cell-based
E. coli O157:H7 [4] = type: cell-based, Escherichia coli O157:H7
L. monocytogenes [5] = type: cell-based, Listeria monocytogenes; remark: listed apart in the source
E. coli O157:H7 [6] = type: cell-based, Escherichia coli O157:H7; remark: listed apart in the source
Salmonella spp. [7] = type: cell-based; remark: listed apart in the source
[8] = system: Aerobic mesophilic bacteria
[9] = system: Aerobic mesophilic bacteria; remark: listed apart in the source

Compound	Log reduction of aerobes on cantaloupe rind surface [1]	Log reduction of L. monocytogenes on cantaloupe rind surface (L. monocytogenes [2])	Log reduction of Salmonella spp on cantaloupe rind surface (Salmonella spp. [3])	Log reduction of E. coli O157:H7 on cantaloupe rind surface (E. coli O157:H7 [4])	Average population of L. monocytogenes inactivated (L. monocytogenes [5])	Average population of E. coli O157:H7 inactivated (E. coli O157:H7 [6])	Average population of Salmonella inactivated (Salmonella spp. [7])	Population of aerobic mesophilic bacteria, fresh-cut [1]	Population of aerobic mesophilic bacteria, fresh-cut [8]	Population of aerobic mesophilic bacteria, fresh-cut [9]
O=C(O)CN(CCN(CC(=O)O)CC(=O)O)CC(=O)O [EDTA (0.02 M), ethylenediaminetetraacetic acid]	(0.4) log	(0.2) log	(0.4) log	(0.3) log						
OO [hydrogen peroxide]	(2.0) log	(3.4) log	(3.0) log	(2.9) log	5.0 log	5.5 log	5.1 log	1.9 ± 0.10C Log10 CFU/g	0.5 ± 0.10D Log10 CFU/g	0.3 ± 0.02D Log10 CFU/g
nisin (ITSISLCTPGCKTGALMGCNMKTATCHCSIHVSK; not fully specified (some residues, bridges); cysteine pairing not given here; UniProt P13068 24-57, looked up) [Nisin (30 mg; (~10 μg/ml)]	(1.2) log	(3.6) log								
C/C=C/C=C/C(=O)O [Sorbic acid (0.03%), Sorbic acid]	(1.1) log	(2.2) log	(2.0) log	(1.8) log						
O=C(O)CC(O)(CC(=O)O)C(=O)O [Citric Acid (10 mM), Citric acid]	(1.2) log	(2.0) log	(1.8) log	(1.5) log						
Sodium Lactate [Sodium Lactate (2%)]	(1.1) log	(2.8) log	(1.5) log	(1.4) log						
